Like-named read-outs stand apart in the source and are kept apart here.
Legend:
[1] = target: T1, delta-opioid receptor (DOR) (Rattus norvegicus, UniProt P33533); test: DOR radioligand competition binding assay ([3H]-DPDPE); details: Delta screening results
T1 construct: Rat cortices were homogenized using 50 mM Tris, pH 7.4, 10 mM MgCl2-6H2O, 200 µM PMSF; from tissue; host or cells: rat cortex membranes
Method in brief: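 Radioligand was 2 nM [3H]-DPDPE, incubated 2.5 h at 25 °C with homogenized rat cortex (50 mM Tris pH 7.4, 10 mM MgCl2, 200 µM PMSF). Bound ligand separated on GF/B filters and counted; nonspecific binding from unlabeled DPDPE. Values are mean ± SD, two experiments, two replicates each.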

[2] = system: C57BL/6J mice; test: Ambulation (locomotor activity) in CLAMS/Oxymax system; type: in vivo, mouse; details: i.c.v.
Protocol: Respiration rates (in breaths per minute) and animal locomotive activity (as ambulations) were assessed using the Oxymax/CLAMS system (Columbus Instruments, Columbus, OH), as described previously. Mice were habituated to their individual sealed housing chambers for 60 min before testing. Mice were administered 1968-22 (0.3–100 nmol, i.c.v.), morphine (100 nmol, i.c.v.), or vehicle, as indicated, and five min later confined to the CLAMS testing chambers. Pressure monitoring within the sealed chambers measured frequency of respiration. Infrared beams located in the floor measured locomotion as number of beam breaks. Respiration and locomotive data were averaged over 20 min periods for 120 min post-injection of the test compound. Data are presented as % vehicle response ± SEM, ambulation or breaths per minute.

[3] = system: C57BL/6J mice; test: Conditioned place preference / aversion; type: in vivo, mouse; details: 0.1, 1 or 10 nmol, i.c.v.; two days of place conditioning
[4] = system: C57BL/6J mice; test: Opioid antagonist activity of 1968-22 against opioid agonists (tail-withdrawal assay)

T1 sequence (P33533 whole entry): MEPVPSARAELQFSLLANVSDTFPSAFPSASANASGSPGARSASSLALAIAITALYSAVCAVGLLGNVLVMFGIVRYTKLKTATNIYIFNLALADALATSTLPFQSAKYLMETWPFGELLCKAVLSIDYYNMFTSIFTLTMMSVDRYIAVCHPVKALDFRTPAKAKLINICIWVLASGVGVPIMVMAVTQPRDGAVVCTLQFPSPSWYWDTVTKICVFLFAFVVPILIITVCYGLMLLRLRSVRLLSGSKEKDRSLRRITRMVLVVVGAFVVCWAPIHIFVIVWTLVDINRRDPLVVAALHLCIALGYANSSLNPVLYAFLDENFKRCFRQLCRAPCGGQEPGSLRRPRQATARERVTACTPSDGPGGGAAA

Cc1cc(O)cc(C)c1C[C@H]1CN([C@@H](Cc2c(C)cc(O)cc2C)CN2C(=N)NC[C@@H]2C)C(=N)N1 [1968-22]
Ki ([1]; first Ki column, unit not printed (apparently M), read-out: Ki (first column)): 0.26 µM
Ki ([1]; mean of both Ki, unit inferred, read-out: MEAN (Ki)): 0.265 µM
Ki ([1]; mean of two experiments, read-out: Ki): 0.265 µM
Ki ([1]; second Ki column, unit not printed (apparently M), read-out: Ki (second column)): 0.271 µM
effect on ambulation vs vehicle ([2]; 0.3 nmol, 0–20 min): brief reductions in ambulations
effect on ambulation vs vehicle ([2]; 100 nmol): elevated ambulations
effect on ambulation vs vehicle ([2]; 1 or 10 nmol): without significant effect
place conditioning result [3]: no significant preference or aversion
antagonism of SNC-80-induced antinociception ([4]; 2.5 h pretreatment, 0.3 nmol i.c.v., SNC-80 100 nmol, i.c.v.): significantly antagonized
antagonism of morphine-induced antinociception ([4]; 2.5 h pretreatment, 0.3 nmol i.c.v., morphine 10 mg/kg, i.p.): did not have an effect
pretreatment dose giving maximal antagonism of SNC-80 ([4]; i.c.v. pretreatment, SNC-80 100 nmol, i.c.v.): 3 nmol

Reference: PMC9455983 (International Journal of Molecular Sciences, 2022)
